Measurements from patent US10081662B2, “Modified relaxin B chain peptides” (The Florey Institute of Neuroscience and Mental Health, priority 2014, dated 2018).
Where two headings read alike, the source gives them in different places. Peptide text beside a SMILES is read from it.

Experiments:
RXFP1 [1] = target: T1, RXFP1 (Homo sapiens, UniProt Q9HBX9); assay: Eu-labelled H2 relaxin competition binding, whole HEK-293T cells stably transfected with RXFP1
T1 construct: expressed in transfected cells; host or cells: HEK-293T
T1 sequence (Q9HBX9 1-757): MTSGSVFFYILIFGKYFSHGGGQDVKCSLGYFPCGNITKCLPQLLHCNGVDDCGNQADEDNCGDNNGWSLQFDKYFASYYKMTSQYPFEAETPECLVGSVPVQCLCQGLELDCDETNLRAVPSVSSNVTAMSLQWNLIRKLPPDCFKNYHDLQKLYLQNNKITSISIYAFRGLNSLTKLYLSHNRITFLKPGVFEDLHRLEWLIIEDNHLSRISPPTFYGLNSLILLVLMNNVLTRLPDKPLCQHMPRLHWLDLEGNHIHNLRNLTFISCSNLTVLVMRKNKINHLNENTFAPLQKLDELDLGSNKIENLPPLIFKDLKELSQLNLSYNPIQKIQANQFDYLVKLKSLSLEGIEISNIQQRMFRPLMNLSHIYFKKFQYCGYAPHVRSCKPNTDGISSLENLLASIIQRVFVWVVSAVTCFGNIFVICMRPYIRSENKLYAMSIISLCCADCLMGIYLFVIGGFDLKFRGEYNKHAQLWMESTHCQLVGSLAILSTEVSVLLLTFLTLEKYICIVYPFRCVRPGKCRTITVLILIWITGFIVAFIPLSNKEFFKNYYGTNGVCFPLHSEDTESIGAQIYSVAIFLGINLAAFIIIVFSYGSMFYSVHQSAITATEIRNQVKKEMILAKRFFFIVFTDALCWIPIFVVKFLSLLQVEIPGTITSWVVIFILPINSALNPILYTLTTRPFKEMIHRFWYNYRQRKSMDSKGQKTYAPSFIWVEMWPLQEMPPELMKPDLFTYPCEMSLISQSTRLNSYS
Description: Human embryonic kidney (HEK-293T) cells stably transfected with RXFP1 were cultured in RPMI 1640 medium supplemented with 10% fetal calf serum, 100 μg/ml penicillin, 100 μg/ml streptomycin and 2 mM L-glutamine and plated into 96-well pre-coated with poly-L-lysine for whole cell binding assays. Competition binding experiments were conducted with Eu^3+-labelled H2 relaxin (as per Shabanpoor et al., 2012, Biochem Biophys Res Commun. 420, 253-256) in the absence or presence of increasing concentrations of unlabelled relaxin-2 B chain derivatives. Nonspecific binding was determined with an excess of unlabelled peptides (500 nM H2 relaxin). Fluorescent measurements were recorded at an excitation wavelength of 340 nm and emission of 614 nm on a Victor plate reader (Perkin-Elmer Inc.). […] Statistical differences in pIC50 values were analyzed using one-way analysis of variance coupled to Newman Keul's multiple comparison test for multiple group comparisons in GraphPad Prism 6.

[2] = target: T2, fusion protein comprising the extracellular domain of RXFP1 and the transmembrane domain of CD8 (7BP cells) (Homo sapiens, UniProt Q9HBX9); assay: Eu-labelled H2 relaxin competition binding to 7BP cells
T2 construct: the extracellular domain of RXFP1 and the transmembrane domain of CD8; expressed in transfected cells
T2 sequence (Q9HBX9 1-409 limits assumed): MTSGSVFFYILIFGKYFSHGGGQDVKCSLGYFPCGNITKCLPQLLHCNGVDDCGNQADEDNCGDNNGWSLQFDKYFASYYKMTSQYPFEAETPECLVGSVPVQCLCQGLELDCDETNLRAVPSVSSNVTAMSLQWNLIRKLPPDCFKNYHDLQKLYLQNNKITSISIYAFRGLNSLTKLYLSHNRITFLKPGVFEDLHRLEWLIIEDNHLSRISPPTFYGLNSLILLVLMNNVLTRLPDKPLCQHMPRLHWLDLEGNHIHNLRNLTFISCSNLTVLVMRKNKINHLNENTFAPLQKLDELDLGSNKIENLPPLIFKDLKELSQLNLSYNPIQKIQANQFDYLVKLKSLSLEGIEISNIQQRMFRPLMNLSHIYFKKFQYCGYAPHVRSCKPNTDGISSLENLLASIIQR

RXFP1 [3] = target: T1, RXFP1; assay: cAMP reporter gene assay (pCRE β-galactosidase) in HEK-293T cells transfected with RXFP1; format: cell-based
Description: The ability of the relaxin-2 B chain peptide derivatives generated in Example 1 to stimulate cAMP response was also evaluated, using a cAMP reporter gene assay as described previously (Scott et al., 2006, J Biol Chem. 281, 34942-34954). HEK-293T cells co-transfected with either RXFP1 or RXFP2, or 7BP cells, and a pCRE β-galactosidase reporter plasmid were plated in 96-well plates. After 24 hours, the co-transfected cells were incubated with increasing concentrations of peptides in parallel to 10 nM of H2 relaxin or INSL3 for RXFP1- or RXFP2-transfected cells respectively. The amount of cAMP-driven β-galactosidase expression in each well was assessed with a colorimetric assay measuring absorbance at 570 nm on a microplate spectrophotometer. Ligand-induced cAMP stimulation was expressed as a percentage of maximal response of H2 relaxin or INSL3 for RXFP1 and RXFP2 cells respectively. Each data point was measured in triplicate and each experiment conducted independently at least three separate times. Statistical differences in pEC50 values were analyzed using one-way ANOVA coupled to Newman Keul's multiple comparison test for multiple group comparisons in GraphPad Prism 6.

[4] = Solubility of relaxin B chain peptides in aqueous solution
[5] = HEK-293T cells stably transfected with RXFP1, competition with Eu-labelled H2 relaxin, mean ± S.E, n ≥ 3, read-out: RXFP1 Eu-H2 pKi (converted)
[6] = 7BP cells, competition with Eu-labelled H2 relaxin, n ≥ 3, read-out: 7BP Eu-H2 pKi (converted)
[7] = HEK-293T cells co-transfected with RXFP1 and pCRE β-galactosidase reporter, n ≥ 3, read-out: RXFP1 cAMP pEC50 (converted)

Row | Compound | Ki (RXFP1 [1]; [5]) [µM] | Ki [2, 6] [µM] | EC50 (RXFP1 [3]; [7]) [µM] | Solubility at concentration 4 mg/ml ([4]; 4 mg/ml, FIG. 1) | Aqueous solubility (in words) ([4]; aqueous solution) | Ki (RXFP1 [1]) [µM] | Ki [2] [µM] | EC50 (RXFP1 [3]) [µM]
1 | CC[C@H](C)[C@H](NC(=O)[C@H](C)NC(=O)[C@@H](NC(=O)[C@H](CCC(N)=O)NC(=O)[C@H](C)NC(=O)[C@H](CCCNC(=N)N)NC(=O)[C@@H](NC(=O)[C@H](CC(C)C)NC(=O)[C@H](CCC(=O)O)NC(=O)[C@H](CCCNC(=N)N)NC(=O)CNC(=O)[C@H](CO)NC(=O)[C@H](CC(C)C)NC(=O)[C@H](CCCCN)NC(=O)[C@@H](NC(=O)[C@@H](NC(C)=O)C(C)C)[C@@H](C)CC)C(C)C)[C@@H](C)CC)C(=O)N[C@@H](CO)C(=O)NCC(=O)N[C@@H](CCSC)C(=O)N[C@@H](CO)C(=O)N[C@H](C(=O)N[C@@H](Cc1c[nH]c2ccccc12)C(=O)N[C@@H](CO)C(=O)N[C@@H](CCCCN)C(=O)N[C@@H](CCCNC(=N)N)C(=O)N[C@@H](CO)C(=O)N[C@@H](CC(C)C)C(N)=O)[C@@H](C)O [AcB7-33 C11.23S] (Ac-VIKLSGRELVRAQIAISGMSTWSKRSL-NH2) | 1 | 0.0288 | 3.98 |  |  |  |  | 
2 | CC[C@H](C)[C@H](NC(=O)[C@H](C)NC(=O)[C@@H](NC(=O)[C@H](CCC(N)=O)NC(=O)[C@H](C)NC(=O)[C@H](CCCNC(=N)N)NC(=O)[C@@H](NC(=O)[C@H](CC(C)C)NC(=O)[C@H](CCC(=O)O)NC(=O)[C@H](CCCNC(=N)N)NC(=O)CNC(=O)[C@H](CS)NC(=O)[C@H](CC(C)C)NC(=O)[C@H](CCCCN)NC(=O)[C@@H](NC(=O)[C@@H](NC(=O)[C@H](CCC(=O)O)NC(=O)[C@H](CCC(=O)O)NC(=O)[C@H](CCSC)NC(=O)[C@H](Cc1c[nH]c2ccccc12)NC(=O)[C@H](CO)NC(=O)[C@@H](N)CC(=O)O)C(C)C)[C@@H](C)CC)C(C)C)[C@@H](C)CC)C(=O)N[C@@H](CS)C(=O)NCC(=O)N[C@@H](CCSC)C(=O)N[C@@H](CO)C(=O)N[C@H](C(=O)N[C@@H](Cc1c[nH]c2ccccc12)C(=O)N[C@@H](CO)C(N)=O)[C@@H](C)O [H2 B chain] |  |  |  | insoluble | insoluble in aqueous solution |  |  | 
3 | CC[C@H](C)[C@H](NC(=O)[C@H](C)NC(=O)[C@@H](NC(=O)[C@H](CCC(N)=O)NC(=O)[C@H](C)NC(=O)[C@H](CCCNC(=N)N)NC(=O)[C@@H](NC(=O)[C@H](CC(C)C)NC(=O)[C@H](CCC(=O)O)NC(=O)[C@H](CCCNC(=N)N)NC(=O)CNC(=O)[C@H](CO)NC(=O)[C@H](CC(C)C)NC(=O)[C@H](CCCCN)NC(=O)[C@@H](NC(=O)[C@@H](NC(C)=O)C(C)C)[C@@H](C)CC)C(C)C)[C@@H](C)CC)C(=O)N[C@@H](CO)C(=O)NCC(=O)N[C@@H](CCSC)C(=O)N[C@@H](CO)C(=O)N[C@H](C(=O)N[C@@H](Cc1c[nH]c2ccccc12)C(=O)N[C@@H](CO)C(=O)N[C@@H](CCCCN)C(=O)N[C@@H](CCCCN)C(=O)N[C@@H](CCCCN)C(=O)N[C@@H](CCCCN)C(N)=O)[C@@H](C)O [KKKK (AcB7-29 C11.23S)] (Ac-VIKLSGRELVRAQIAISGMSTWSKKKK-NH2) | 0.562 | 0.00123 | 1.55 |  |  |  |  | 
4 | CC[C@H](C)[C@H](NC(=O)[C@H](C)NC(=O)[C@H](C)NC(=O)[C@H](CCC(N)=O)NC(=O)[C@H](C)NC(=O)[C@H](C)NC(=O)[C@@H](NC(=O)[C@H](CC(C)C)NC(=O)[C@H](CCC(=O)O)NC(=O)[C@H](C)NC(=O)CNC(=O)[C@H](CO)NC(=O)[C@H](CC(C)C)NC(=O)[C@H](CCCCN)NC(=O)[C@@H](NC(=O)[C@@H](NC(C)=O)C(C)C)[C@@H](C)CC)C(C)C)C(=O)N[C@@H](CO)C(=O)NCC(=O)N[C@@H](CCSC)C(=O)N[C@@H](CO)C(=O)N[C@H](C(=O)N[C@@H](Cc1c[nH]c2ccccc12)C(=O)N[C@@H](CO)C(=O)N[C@@H](CCCCN)C(=O)N[C@@H](CCCNC(=N)N)C(=O)N[C@@H](CO)C(=O)N[C@@H](CC(C)C)C(N)=O)[C@@H](C)O [R13/17A. I20A (AcB7-33 C11.23S)] (Ac-VIKLSGAELVAAQAAISGMSTWSKRSL-NH2) |  |  |  |  |  | > 10 | 2.88 | > 10

Continued, in another order:

Row | Ki (RXFP1 [1]; [5]) [µM] | Ki [2, 6] [µM] | EC50 (RXFP1 [3]; [7]) [µM] | Solubility at concentration 4 mg/ml ([4]; 4 mg/ml, FIG. 1) | Aqueous solubility (in words) ([4]; aqueous solution) | Compound | Ki (RXFP1 [1]) [µM] | Ki [2] [µM] | EC50 (RXFP1 [3]) [µM]
5 | > 10 | 1.74 | > 10 |  |  | CC[C@H](C)[C@H](NC(=O)[C@H](C)NC(=O)[C@@H](NC(=O)[C@H](CCC(N)=O)NC(=O)[C@H](C)NC(=O)[C@H](CCCNC(=N)N)NC(=O)[C@@H](NC(=O)[C@H](CC(C)C)NC(=O)[C@H](CCC(=O)O)NC(=O)[C@H](C)NC(=O)CNC(=O)[C@H](CO)NC(=O)[C@H](CC(C)C)NC(=O)[C@H](CCCCN)NC(=O)[C@@H](NC(=O)[C@@H](NC(C)=O)C(C)C)[C@@H](C)CC)C(C)C)[C@@H](C)CC)C(=O)N[C@@H](CO)C(=O)NCC(=O)N[C@@H](CCSC)C(=O)N[C@@H](CO)C(=O)N[C@H](C(=O)N[C@@H](Cc1c[nH]c2ccccc12)C(=O)N[C@@H](CO)C(=O)N[C@@H](CCCCN)C(=O)N[C@@H](CCCNC(=N)N)C(=O)N[C@@H](CO)C(=O)N[C@@H](CC(C)C)C(N)=O)[C@@H](C)O [R13A (AcB7-33 C11.23S)] (Ac-VIKLSGAELVRAQIAISGMSTWSKRSL-NH2) |  |  | 
6 | > 10 | 0.977 | > 10 |  |  | CC[C@H](C)[C@H](NC(=O)[C@H](C)NC(=O)[C@@H](NC(=O)[C@H](CCC(N)=O)NC(=O)[C@H](C)NC(=O)[C@H](C)NC(=O)[C@@H](NC(=O)[C@H](CC(C)C)NC(=O)[C@H](CCC(=O)O)NC(=O)[C@H](CCCNC(=N)N)NC(=O)CNC(=O)[C@H](CO)NC(=O)[C@H](CC(C)C)NC(=O)[C@H](CCCCN)NC(=O)[C@@H](NC(=O)[C@@H](NC(C)=O)C(C)C)[C@@H](C)CC)C(C)C)[C@@H](C)CC)C(=O)N[C@@H](CO)C(=O)NCC(=O)N[C@@H](CCSC)C(=O)N[C@@H](CO)C(=O)N[C@H](C(=O)N[C@@H](Cc1c[nH]c2ccccc12)C(=O)N[C@@H](CO)C(=O)N[C@@H](CCCCN)C(=O)N[C@@H](CCCNC(=N)N)C(=O)N[C@@H](CO)C(=O)N[C@@H](CC(C)C)C(N)=O)[C@@H](C)O [R17A (AcB7-33 C11.23S)] (Ac-VIKLSGRELVAAQIAISGMSTWSKRSL-NH2) |  |  | 
